Several values for one entry are separate records, joined by “and”; a condition that tells them apart may be missing. Identical values can stand only once. Like-named read-outs stand apart in the source and are kept apart here.
How the values were obtained:
[1] = system: hP2Y6R-1321N1 human astrocytoma cells; assay: MTT cell viability assay, hP2Y6R-1321N1 astrocytoma cells; format: cell-based; settings: for % survival: P2Y6R-astrocytoma, 12 h, MTT
Description: The 1321N1 astrocytoma (hP2Y6R-overexpressing) and HeLa (non-transfected) cell lines were cultured in Dulbecco’s modified Eagle’s medium (DMEM, HyClone, Logan, UT, USA) supplemented with 5% heat-inactivated fetal bovine serum (FBS, HyClone, UT, USA), 100 U/mL penicillin, and 100 µg/mL streptomycin in 5% CO2 at 37 °C. The cell viability was determined using an MTT kit (Sigma, St. Louis, MO, USA) according to the manufacturer’s instructions. Briefly, 1 × 10^4 cells were seeded in triplicate in 96-well plates. The hP2Y6R-astrocytoma and HeLa cells were treated with a P2Y6R agonist and antagonists at a range of concentrations and incubated for 12 h. The cell viability was measured at 490 nm using a SpectraMax-M5 Spectrometer (Molecular Devices, San Jose, CA, USA).

hP2Y14R = target: T1, hP2Y14R (Homo sapiens, UniProt Q15391); assay: whole-cell binding of fluorescent antagonist MRS4174 in CHO-hP2Y14R cells (flow cytometry)
T1 construct: expressed in transfected cells
T1 sequence (Q15391 1-338): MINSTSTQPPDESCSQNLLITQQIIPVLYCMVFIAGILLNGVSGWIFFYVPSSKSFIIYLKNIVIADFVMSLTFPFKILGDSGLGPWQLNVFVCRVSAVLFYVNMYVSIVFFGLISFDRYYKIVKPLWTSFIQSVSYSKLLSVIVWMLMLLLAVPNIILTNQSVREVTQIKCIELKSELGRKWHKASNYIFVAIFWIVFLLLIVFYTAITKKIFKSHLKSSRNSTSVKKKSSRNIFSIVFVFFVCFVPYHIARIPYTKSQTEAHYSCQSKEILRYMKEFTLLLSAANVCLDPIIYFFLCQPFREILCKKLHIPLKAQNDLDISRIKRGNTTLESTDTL

D4 = target: T2, D4 (Homo sapiens, UniProt P21917); assay: PDSP binding assay, D4; settings: mean, n = 2
T2 construct: NIMH Psychoactive Drug Screening Program (PDSP)
Source text: (§1) Table S2. Off-target screening (to replace table later). We thank Dr. Bryan L. Roth (Univ. North Carolina at Chapel Hill) and National Institute of Mental Health's Psychoactive Drug Screening Program (Contract # HHSN-271-2008-00025-C) for screening data. Reference: Besnard et al.
(§2) Procedures: https://pdsp.unc.edu/pdspweb/content/UNC-CH%20Protocol%20Book.pdf […]
(§3) nucleosides were found at the following sites (human unless noted): 5HT1A, 5HT1B, 5HT1D, […]
(§4) β3, BZP rat brain site, D1, D2, D3, D4, D5, GABAA, H1, H2, H3, H4, M1, M2, M5, δ-opioid receptor (DOR), κ-opioid receptor (KOR), μ-opioid receptor (MOR), σ1, σ2, DAT, NET, SERT. Ki values […]
(§5) Compound # PDSP # Receptor LogKi Ki (nM)

[2] = system: 45 target sites (receptors, channels, and transporters); assay: PDSP off-target binding screen at 45 target sites; set-up: species or system human; settings: PDSP binding assays
Source text: as §1, §2, §3, §4, §5

SERT = target: T3, SERT (Homo sapiens, UniProt P31645); assay: PDSP binding assay, SERT; settings: Table S2, single determination
T3 construct: NIMH Psychoactive Drug Screening Program (PDSP)
Source text: as §1, §2, §3, §4, §5

D2 = target: T4, D2 (Homo sapiens, UniProt P14416); assay: PDSP binding assay, D2; settings: Table S2, single determination
T4 construct: NIMH Psychoactive Drug Screening Program (PDSP)
Source text: as §1, §2, §3, §4, §5

α2A = target: T5, α2A (Homo sapiens, UniProt P08913); assay: PDSP binding assay, α2A
T5 construct: NIMH Psychoactive Drug Screening Program (PDSP)
T5 sequence (P08913 1-465): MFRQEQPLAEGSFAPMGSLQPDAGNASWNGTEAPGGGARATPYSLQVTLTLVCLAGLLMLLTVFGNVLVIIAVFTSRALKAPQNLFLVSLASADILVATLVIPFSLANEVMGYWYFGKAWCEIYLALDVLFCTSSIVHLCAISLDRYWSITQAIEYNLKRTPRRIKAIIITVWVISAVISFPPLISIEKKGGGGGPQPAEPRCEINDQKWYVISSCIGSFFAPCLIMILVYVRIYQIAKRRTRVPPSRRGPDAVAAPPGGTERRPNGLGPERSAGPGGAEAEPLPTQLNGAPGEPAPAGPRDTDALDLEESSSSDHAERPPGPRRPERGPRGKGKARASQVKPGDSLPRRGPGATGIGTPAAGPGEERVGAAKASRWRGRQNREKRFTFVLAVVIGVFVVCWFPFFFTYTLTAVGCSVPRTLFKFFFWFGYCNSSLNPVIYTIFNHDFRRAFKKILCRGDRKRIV
Source text: as §1, §2, §3, §4, §5

D5 = target: T6, D5 (Homo sapiens, UniProt P21918); assay: PDSP binding assay, D5
T6 construct: NIMH Psychoactive Drug Screening Program (PDSP)
Source text: as §1, §2, §3, §4, §5

hP2Y6R = target: T7, hP2Y6R (Homo sapiens, UniProt Q15077); assay: UDP (100 nM)-induced Ca2+ mobilization in hP2Y6R stably transfected 1321N1 astrocytoma cells; format: cell-based
T7 construct: expressed in transfected cells
Description: To screen for P2Y6R antagonist activity, PLC-mediated calcium mobilization assays were carried out using the recombinant human P2Y6R stably expressed in 1321N1 astrocytoma cells (hP2Y6R-1321N1) according to the previously published method. Briefly, the hP2Y6R-1321N1 cells were seeded on 96-well black plates and incubated overnight. The antagonists were pretreated along with the FLIPR dye (Calcium 6 assay kit, Molecular Devices, San Jose, CA, USA) containing 5 mM probenecid for 45 min, prior to agonist addition followed by an immediate intracellular Ca^2+ measurement. […] Here, probenecid was used as an organic anion transporter inhibitor to prevent the efflux of the dye into the extracellular environment. During incubation, the membrane permeable dye enters the cytoplasm and cleaves the acetoxymethyl protection to enable Ca^2+ binding. When the P2Y6R was activated by UDP, the increased calcium concentration was directly measured by intracellular changes in the fluorescence intensity with a Fluorescent Imaging Plate Reader (FLIPR^TETRA, Molecular Devices, San Jose, CA, USA).

H2 = target: T8, H2 (Homo sapiens, UniProt P25021); assay: PDSP binding assay, H2; settings: mean, n = 2
T8 construct: NIMH Psychoactive Drug Screening Program (PDSP)
Source text: as §1, §2, §3, §4, §5

H1 = target: T9, H1 (Homo sapiens, UniProt P35367); assay: PDSP binding assay, H1; settings: Table S2, single determinations; read-out: Ki (nM), H1
T9 construct: NIMH Psychoactive Drug Screening Program (PDSP)
Source text: as §1, §2, §3, §4, §5

D3 = target: T10, D3 (Homo sapiens, UniProt P35462); assay: PDSP binding assay, D3; settings: Table S2, single determination
T10 construct: NIMH Psychoactive Drug Screening Program (PDSP)
Source text: as §1, §2, §3, §4, §5

T6 sequence (P21918 whole entry): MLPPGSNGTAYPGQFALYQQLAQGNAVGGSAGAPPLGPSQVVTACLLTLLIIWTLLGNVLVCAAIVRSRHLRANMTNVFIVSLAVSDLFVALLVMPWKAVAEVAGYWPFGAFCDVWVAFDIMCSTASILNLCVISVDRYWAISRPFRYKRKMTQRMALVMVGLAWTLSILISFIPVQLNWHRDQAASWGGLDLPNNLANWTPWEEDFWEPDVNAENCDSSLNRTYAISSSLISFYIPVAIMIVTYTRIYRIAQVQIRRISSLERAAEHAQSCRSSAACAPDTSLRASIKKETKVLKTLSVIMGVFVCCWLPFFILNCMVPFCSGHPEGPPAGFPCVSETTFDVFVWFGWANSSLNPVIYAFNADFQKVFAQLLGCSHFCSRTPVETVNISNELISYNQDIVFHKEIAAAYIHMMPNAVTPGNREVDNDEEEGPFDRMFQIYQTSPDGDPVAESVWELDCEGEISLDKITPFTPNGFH
T9 sequence (P35367 whole entry): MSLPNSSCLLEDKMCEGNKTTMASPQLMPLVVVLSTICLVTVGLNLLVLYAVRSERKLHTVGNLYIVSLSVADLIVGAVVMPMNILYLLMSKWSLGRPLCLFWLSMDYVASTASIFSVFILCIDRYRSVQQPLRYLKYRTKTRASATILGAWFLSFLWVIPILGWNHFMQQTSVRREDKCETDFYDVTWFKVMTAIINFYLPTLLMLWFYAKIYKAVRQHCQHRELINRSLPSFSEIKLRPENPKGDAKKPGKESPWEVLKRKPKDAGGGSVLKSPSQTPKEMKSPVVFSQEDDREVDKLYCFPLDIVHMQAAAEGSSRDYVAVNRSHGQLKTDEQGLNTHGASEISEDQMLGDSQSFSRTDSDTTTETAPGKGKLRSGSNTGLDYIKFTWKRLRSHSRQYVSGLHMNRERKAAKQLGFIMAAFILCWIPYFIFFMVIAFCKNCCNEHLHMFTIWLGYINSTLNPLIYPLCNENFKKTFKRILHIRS
T7 sequence (Q15077 whole entry): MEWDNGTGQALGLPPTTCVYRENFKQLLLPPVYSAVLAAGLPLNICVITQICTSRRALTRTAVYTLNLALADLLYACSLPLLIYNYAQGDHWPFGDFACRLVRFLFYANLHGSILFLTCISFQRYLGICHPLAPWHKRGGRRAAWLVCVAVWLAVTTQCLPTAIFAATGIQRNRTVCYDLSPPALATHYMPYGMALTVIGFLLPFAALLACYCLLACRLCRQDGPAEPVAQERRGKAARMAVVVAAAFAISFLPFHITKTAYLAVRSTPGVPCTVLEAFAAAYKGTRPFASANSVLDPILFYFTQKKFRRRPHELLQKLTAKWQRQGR
T4 sequence (P14416 whole entry): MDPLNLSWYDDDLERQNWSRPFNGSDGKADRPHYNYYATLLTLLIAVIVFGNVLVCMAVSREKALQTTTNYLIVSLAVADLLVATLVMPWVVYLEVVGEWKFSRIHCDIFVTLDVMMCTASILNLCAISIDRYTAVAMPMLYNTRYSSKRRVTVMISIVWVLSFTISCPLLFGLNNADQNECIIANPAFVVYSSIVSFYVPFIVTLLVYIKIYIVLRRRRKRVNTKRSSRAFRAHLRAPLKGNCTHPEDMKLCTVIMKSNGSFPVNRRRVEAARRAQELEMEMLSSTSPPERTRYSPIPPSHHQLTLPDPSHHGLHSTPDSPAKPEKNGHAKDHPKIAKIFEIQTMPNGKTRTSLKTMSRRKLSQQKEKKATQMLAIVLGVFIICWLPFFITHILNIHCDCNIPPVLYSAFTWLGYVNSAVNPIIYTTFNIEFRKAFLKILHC
T3 sequence (P31645 whole entry): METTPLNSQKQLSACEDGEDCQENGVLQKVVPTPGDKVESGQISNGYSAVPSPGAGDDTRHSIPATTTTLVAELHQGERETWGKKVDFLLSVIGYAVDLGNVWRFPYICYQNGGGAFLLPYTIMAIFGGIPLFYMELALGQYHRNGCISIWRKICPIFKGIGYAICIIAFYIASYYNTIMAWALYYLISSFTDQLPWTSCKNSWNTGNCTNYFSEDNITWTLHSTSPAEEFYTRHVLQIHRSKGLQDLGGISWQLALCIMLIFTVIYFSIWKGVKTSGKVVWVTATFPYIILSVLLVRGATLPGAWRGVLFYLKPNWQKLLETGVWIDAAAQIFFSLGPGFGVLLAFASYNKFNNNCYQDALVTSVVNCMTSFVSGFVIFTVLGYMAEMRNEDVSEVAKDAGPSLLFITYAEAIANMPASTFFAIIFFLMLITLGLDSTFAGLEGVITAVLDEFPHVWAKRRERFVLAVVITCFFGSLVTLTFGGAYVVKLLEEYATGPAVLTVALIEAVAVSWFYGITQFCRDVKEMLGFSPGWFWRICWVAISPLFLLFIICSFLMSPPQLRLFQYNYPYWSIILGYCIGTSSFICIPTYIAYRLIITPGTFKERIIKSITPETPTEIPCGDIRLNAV
T2 sequence (P21917 whole entry): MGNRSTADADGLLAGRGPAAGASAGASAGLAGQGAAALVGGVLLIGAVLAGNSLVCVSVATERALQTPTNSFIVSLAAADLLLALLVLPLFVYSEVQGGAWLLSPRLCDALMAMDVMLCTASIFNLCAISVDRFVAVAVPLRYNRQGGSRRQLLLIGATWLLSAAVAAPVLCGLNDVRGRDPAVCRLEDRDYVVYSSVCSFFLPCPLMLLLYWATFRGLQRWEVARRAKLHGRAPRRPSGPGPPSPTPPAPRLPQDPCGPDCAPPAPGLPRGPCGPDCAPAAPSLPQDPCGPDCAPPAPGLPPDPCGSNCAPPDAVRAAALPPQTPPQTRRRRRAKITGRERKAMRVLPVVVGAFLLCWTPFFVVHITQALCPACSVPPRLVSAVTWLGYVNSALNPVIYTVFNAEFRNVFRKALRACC
T8 sequence (P25021 whole entry): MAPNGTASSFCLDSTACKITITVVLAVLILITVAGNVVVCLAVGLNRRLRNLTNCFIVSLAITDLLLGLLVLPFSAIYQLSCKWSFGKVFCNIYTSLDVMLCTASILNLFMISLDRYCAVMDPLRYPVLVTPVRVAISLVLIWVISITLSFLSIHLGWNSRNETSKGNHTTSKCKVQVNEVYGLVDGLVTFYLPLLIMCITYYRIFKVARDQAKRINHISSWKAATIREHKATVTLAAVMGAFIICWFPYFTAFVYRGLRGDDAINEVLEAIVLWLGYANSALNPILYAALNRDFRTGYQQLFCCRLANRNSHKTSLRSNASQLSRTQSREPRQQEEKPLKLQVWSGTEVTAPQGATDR
T10 sequence (P35462 whole entry): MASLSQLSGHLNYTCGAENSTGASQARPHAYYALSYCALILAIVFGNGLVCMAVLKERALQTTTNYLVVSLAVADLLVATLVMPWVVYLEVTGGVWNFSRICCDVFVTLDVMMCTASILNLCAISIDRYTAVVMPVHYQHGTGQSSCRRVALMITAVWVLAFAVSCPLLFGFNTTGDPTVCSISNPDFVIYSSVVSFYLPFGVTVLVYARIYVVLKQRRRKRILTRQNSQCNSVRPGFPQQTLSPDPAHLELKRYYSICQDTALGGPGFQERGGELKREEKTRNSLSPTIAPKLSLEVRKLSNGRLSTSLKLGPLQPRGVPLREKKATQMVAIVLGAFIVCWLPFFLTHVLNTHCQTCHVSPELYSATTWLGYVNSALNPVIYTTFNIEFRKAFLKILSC

CC(C)(C)OC(=O)NCCCCCCCC#Cc1ccc2c(c1)C=C([N+](=O)[O-])C(C(F)(F)F)O2 (centres unmarked) [Compound 30, tert-Butyl (9-(3-nitro-2-(trifluoromethyl)-2H-chromen-6-yl)non-8-yn-1-yl)carbamate]
% survival ([1]; 0.05 µM): 98%
% survival ([1]; 0.1 µM): 98%
% survival ([1]; 0.5 µM): 83%
% survival ([1]; 1 µM): 77%
inhibition of viability ([1]; hP2Y6R-1321N1 cells, at 1 µM, 12 h exposure): 23%
IC50 (hP2Y14R; CHO-hP2Y14, competitive binding, flow cytometer): 21400 ± 5800 nM
fold selective compared to the hP2Y14R (hP2Y14R; hP2Y6R vs hP2Y14R): 132 fold
Ki (D4): 3100 nM
off-target interactions at 45 target sites [2]: seven off-target interactions
Ki (SERT): > 10000 nM
Ki (D2): > 10000 nM
Ki (α2A; PDSP, mean, n = 2, read-out: Ki, α2A): 86 nM
Ki (α2A; Table S2, single determinations, read-out: Ki (nM), Alpha2A): 80.2 nM and 90.7 nM
Ki (D5; PDSP, mean, n = 2, read-out: Ki, D5): 780 nM
Ki (D5; Table S2, single determinations, read-out: Ki (nM), D5): 643 nM and 911 nM
IC50 (hP2Y6R; UDP 100 nM, 3–4 independent triplicate determinations, read-out: IC50, hP2Y6R (Mean ± SEM)): 162 ± 13 nM
fold greater affinity than the corresponding pivaloyl derivative (hP2Y6R; hP2Y6R IC50 ratio): 107 fold
Ki (H2): 500 nM
Ki (H1): 630 nM and 366 nM
Ki (D3): > 10000 nM
